Measured values: patent publication US9352013B2, “Uses of bremelanotide in therapy for female sexual dysfunction” (Palatin Technologies, Inc., priority 2012, dated 2016)

Assay: Subcutaneous trial in males: vomiting
Assay type: in vivo, human
Conditions: intramuscular ondansetron
Method: In a trial in males, 1 of 6 subjects at the 5-mg dose level, 1 of 6 subjects at the 7.5 mg dose level, and 3 of 6 subjects at the 10-mg dose level experienced vomiting that was mild or moderate in intensity and delayed 6 to 15 hours.

## Cc1nccn1CC1CCc2c(c3ccccc3n2C)C1=O (stereo not shown) [ondansetron, reference compound]
  Resolution of bremelanotide-associated vomiting: Vomiting could be resolved
